Patent US10022376B2 (Pfizer Inc., priority 2014, dated 2018)
Structures can show the parent of a compound that is named as a salt.

Key:
TYK2 = TYK2 (Homo sapiens (Human), UniProt P29597); assay: JAK Caliper Enzyme Assay at 1 mM ATP (TYK2); format: biochemical; details: Caliper assay at 1 mM ATP
JAK3 = JAK3 (Homo sapiens (Human), UniProt P52333); assay: JAK Caliper Enzyme Assay at 1 mM ATP (JAK3); format: biochemical; details: Caliper assay at 1 mM ATP
JAK2 = JAK2 (Homo sapiens (Human), UniProt O60674); assay: JAK Caliper Enzyme Assay at 1 mM ATP (JAK2); format: biochemical; details: Caliper assay at 1 mM ATP
[1] = tested on: rhIFNγ stimulated STAT-3 phosphorylation in the A549 human epithelial cell line; assay: A549 Cell Assay: Inhibition of pSTAT3; format: cell-based; details: A549 cells
Summary of the method: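 A549 cells cultured 18 h were preincubated 1 h at 37° C with compound (0.3 nM to 10 μM, 0.1% DMSO) in DMEM with 0.2% BSA, then stimulated with 20 ng/mL rhIFNγ for 30 min. pSTAT3 Tyr705 in the lysates was measured by MSD immunoassay and expressed as percent inhibition.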

JAK1 = JAK1 (Homo sapiens (Human), UniProt P23458); assay: JAK Caliper Enzyme Assay at 1 mM ATP (JAK1); format: biochemical; details: Caliper assay at 1 mM ATP
JAK1, sequence (P23458 whole entry): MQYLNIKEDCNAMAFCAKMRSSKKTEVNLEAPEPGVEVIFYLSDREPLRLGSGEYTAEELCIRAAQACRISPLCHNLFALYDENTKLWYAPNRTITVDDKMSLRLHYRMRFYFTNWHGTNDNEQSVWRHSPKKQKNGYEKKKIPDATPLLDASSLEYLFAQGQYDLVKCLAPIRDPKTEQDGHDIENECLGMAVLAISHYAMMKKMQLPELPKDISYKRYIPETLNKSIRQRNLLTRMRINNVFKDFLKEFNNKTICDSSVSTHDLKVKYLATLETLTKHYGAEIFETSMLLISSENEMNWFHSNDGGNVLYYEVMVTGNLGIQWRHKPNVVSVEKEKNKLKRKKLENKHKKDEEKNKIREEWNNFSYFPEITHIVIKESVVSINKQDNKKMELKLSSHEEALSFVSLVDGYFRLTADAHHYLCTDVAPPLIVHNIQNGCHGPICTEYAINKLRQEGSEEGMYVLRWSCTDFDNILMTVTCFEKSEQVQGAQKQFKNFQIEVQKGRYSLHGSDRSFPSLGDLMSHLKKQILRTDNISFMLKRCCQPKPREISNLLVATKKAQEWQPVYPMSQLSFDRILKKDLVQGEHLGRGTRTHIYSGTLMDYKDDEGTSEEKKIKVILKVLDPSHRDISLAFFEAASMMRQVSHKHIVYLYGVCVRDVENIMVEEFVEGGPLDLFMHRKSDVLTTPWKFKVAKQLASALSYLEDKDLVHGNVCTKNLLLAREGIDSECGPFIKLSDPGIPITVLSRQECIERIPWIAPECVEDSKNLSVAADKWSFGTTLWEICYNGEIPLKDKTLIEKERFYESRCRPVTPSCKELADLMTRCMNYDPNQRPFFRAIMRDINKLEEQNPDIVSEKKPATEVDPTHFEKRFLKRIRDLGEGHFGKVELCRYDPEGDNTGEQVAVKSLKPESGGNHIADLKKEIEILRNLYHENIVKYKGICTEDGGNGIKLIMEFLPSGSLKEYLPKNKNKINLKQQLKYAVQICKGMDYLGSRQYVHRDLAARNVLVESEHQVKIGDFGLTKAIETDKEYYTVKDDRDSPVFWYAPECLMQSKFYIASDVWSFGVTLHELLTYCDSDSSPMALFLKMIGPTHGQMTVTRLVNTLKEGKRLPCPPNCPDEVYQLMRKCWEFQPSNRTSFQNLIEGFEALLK

JAK3, sequence (P52333 whole entry): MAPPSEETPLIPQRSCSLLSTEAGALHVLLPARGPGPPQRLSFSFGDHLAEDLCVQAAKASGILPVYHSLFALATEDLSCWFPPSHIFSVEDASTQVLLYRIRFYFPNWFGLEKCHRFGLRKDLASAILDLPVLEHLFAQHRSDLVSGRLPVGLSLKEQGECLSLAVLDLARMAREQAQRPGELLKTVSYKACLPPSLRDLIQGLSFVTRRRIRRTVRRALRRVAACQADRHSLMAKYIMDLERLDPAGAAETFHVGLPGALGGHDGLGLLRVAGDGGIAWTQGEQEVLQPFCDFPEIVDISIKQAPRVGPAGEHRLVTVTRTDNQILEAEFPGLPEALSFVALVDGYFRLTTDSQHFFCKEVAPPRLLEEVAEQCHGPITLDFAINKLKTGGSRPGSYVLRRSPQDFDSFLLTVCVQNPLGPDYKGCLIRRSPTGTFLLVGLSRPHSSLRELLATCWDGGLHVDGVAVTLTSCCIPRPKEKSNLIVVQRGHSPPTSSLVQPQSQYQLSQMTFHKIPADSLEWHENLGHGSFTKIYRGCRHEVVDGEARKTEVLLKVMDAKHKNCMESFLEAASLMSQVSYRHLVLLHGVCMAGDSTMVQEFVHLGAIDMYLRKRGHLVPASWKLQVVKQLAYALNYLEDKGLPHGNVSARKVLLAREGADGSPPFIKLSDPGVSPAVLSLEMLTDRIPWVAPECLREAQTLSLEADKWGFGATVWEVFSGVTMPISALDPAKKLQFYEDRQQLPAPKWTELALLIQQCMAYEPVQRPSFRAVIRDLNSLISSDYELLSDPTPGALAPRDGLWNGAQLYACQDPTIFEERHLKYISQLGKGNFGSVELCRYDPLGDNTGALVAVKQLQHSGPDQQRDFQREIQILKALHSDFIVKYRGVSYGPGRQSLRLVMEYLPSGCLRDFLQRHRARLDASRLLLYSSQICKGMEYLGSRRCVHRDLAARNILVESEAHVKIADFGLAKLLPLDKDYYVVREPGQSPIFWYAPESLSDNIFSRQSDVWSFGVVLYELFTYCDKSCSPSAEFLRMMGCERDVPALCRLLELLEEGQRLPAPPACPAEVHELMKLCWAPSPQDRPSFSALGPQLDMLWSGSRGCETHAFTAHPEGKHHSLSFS
TYK2, sequence (P29597 whole entry): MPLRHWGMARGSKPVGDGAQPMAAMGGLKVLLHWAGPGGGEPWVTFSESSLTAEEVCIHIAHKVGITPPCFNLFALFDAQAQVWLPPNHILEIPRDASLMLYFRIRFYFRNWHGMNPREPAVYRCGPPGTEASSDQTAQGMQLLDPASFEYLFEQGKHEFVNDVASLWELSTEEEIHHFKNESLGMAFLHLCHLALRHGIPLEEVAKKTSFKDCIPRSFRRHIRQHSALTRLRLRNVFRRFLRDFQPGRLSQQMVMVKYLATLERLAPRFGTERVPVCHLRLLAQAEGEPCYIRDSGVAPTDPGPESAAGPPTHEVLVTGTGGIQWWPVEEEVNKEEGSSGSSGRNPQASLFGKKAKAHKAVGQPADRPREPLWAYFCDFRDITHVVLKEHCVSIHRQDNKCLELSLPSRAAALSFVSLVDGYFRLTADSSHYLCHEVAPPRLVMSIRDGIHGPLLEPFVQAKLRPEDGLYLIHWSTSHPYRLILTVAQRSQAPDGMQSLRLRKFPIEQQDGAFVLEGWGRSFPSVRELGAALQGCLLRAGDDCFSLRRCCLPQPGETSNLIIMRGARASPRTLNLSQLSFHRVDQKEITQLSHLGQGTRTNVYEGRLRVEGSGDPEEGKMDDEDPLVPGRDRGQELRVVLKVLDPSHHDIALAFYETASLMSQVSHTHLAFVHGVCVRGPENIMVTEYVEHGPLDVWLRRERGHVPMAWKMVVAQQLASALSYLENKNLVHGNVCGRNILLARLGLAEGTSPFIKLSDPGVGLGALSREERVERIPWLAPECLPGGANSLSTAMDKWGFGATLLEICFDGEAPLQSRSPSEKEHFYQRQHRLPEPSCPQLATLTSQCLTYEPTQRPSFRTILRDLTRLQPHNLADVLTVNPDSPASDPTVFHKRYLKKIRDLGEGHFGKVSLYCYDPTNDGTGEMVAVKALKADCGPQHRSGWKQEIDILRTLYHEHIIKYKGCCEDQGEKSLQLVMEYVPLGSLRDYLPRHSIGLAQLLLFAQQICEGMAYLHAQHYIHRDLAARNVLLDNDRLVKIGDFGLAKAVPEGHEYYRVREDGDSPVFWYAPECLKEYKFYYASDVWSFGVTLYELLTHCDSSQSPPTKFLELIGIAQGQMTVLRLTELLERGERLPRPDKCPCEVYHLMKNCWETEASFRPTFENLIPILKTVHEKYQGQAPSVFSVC
JAK2, sequence (O60674 whole entry): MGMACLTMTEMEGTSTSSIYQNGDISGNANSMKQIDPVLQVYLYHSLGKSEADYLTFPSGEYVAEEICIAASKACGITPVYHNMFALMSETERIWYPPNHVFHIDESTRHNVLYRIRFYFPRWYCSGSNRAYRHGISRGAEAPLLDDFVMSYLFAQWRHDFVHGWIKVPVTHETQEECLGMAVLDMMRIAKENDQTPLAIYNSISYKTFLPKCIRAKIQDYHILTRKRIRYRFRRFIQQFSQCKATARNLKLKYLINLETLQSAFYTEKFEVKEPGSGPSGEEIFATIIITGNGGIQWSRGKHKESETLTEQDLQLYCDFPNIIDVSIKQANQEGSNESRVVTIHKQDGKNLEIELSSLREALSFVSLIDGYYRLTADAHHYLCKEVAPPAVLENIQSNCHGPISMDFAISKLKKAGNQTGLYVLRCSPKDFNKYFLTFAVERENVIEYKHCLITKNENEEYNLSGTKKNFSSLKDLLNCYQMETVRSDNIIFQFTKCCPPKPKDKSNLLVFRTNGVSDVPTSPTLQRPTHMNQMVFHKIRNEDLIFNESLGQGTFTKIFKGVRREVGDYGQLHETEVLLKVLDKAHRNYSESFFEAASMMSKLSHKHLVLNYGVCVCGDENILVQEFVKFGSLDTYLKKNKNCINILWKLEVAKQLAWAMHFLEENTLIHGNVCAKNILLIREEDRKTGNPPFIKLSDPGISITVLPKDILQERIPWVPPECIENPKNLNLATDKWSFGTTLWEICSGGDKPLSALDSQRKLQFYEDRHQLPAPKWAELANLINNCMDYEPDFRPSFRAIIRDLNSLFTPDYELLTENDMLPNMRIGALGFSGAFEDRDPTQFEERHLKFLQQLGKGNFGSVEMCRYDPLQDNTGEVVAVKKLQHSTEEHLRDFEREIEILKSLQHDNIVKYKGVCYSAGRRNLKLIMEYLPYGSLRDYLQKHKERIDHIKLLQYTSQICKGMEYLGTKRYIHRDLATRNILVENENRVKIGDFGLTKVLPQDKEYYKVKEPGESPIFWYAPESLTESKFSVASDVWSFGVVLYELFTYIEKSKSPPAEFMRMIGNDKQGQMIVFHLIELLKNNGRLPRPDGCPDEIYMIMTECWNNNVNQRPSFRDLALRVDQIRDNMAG

## CCc1cc(O)c(F)cc1-c1cc2[nH]ncc2c(NCc2ccccc2N(CC)S(C)(=O)=O)n1 [Example 138, N-ethyl-N-[2-({[6-(2-ethyl-5-fluoro-4-hydroxyphenyl)-1H-pyrazolo[4,3-c]pyridin-4-yl]amino}-methyl)phenyl]methanesulfonamide]
TYK2
  IC50: 4.8 nM
JAK3
  IC50: 14.2 nM
JAK2
  IC50: 2.6 nM
[1]; Homo sapiens
  IC50: 5.4 nM

## CCc1cc(O)c(F)cc1-c1cc2[nH]nc(C(=O)NC)c2c(NCc2ccccc2N(CC)S(C)(=O)=O)n1 [Example 9, 6-(2-ethyl-5-fluoro-4-hydroxyphenyl)-4-({2-[ethyl(methylsulfonyl)amino]benzyl}amino)-N-methyl-1H-pyrazolo[4,3-c]pyridine-3-carboxamide]
TYK2
  IC50: 7.2 nM
JAK3
  IC50: 60 nM
JAK2
  IC50: 10.8 nM
JAK1
  IC50: 1.7 nM
[1]; Homo sapiens
  IC50: 14.9 nM

## CCS(=O)(=O)N(C)c1ccccc1CNc1nc(-c2cc(F)c(O)cc2CC(F)(F)F)cc2[nH]nc(C(=O)NC)c12 [Example 13, 4-({2-[(ethylsulfonyl)(methyl)amino]benzyl}amino)-6-[5-fluoro-4-hydroxy-2-(2,2,2-trifluoroethyl)phenyl]-N-methyl-1H-pyrazolo[4,3-c]pyridine-3-carboxamide]
TYK2
  IC50: 35.7 nM
JAK3
  IC50: 118 nM
JAK2
  IC50: 26.6 nM
JAK1
  IC50: 5.3 nM
[1]; Homo sapiens
  IC50: 96.7 nM

## CCc1cc(O)ccc1-c1cc2[nH]ncc2c(N2CCc3c(cccc3C(=O)NCc3ccccc3)C2)n1 [Example 117, N-benzyl-2-[6-(2-ethyl-4-hydroxyphenyl)-1H-pyrazolo[4,3-c]pyridin-4-yl]-1,2,3,4-tetrahydroisoquinoline-5-carboxamide formate]
TYK2
  IC50: 425 nM
JAK3
  IC50: 41.6 nM

## CCc1cc(O)ccc1-c1cc2[nH]ncc2c(N2CCC(S(=O)(=O)N(C)C)C2)n1 (racemic) [Example 126, 1-[6-(2-ethyl-4-hydroxyphenyl)-1H-pyrazolo[4,3-c]pyridin-4-yl]-N, N-dimethylpyrrolidine-3-sulfonamide (racemic)]
TYK2
  IC50: 668 nM
JAK3
  IC50: 35.1 nM
JAK2
  IC50: 23.5 nM
JAK1
  IC50: 8.1 nM

## CCc1cc(O)c(F)cc1-c1cc2[nH]ncc2c(N(CCc2ccc(NS(C)(=O)=O)cc2)Cc2ccccc2N(C)S(C)(=O)=O)n1 [Example 130, N-[2-({[6-(2-ethyl-5-fluoro-4-hydroxyphenyl)-1H-pyrazolo[4,3-c]pyridin-4-yl](2-{4-[(methylsulfonyl)amino]phenyl}ethyl)amino}methyl)phenyl]-N-methylmethanesulfonamide hydrochloride]
TYK2
  IC50: 194 nM
JAK3
  IC50: 1360 nM
JAK1
  IC50: 43.8 nM
[1]; Homo sapiens
  IC50: 729 nM

## CCNC(=O)c1n[nH]c2cc(-c3cc(F)c(O)cc3CC(F)(F)F)nc(NCc3nccnc3N(CC)S(C)(=O)=O)c12 [Example 46, N-ethyl-4-[({3-[ethyl(methylsulfonyl)amino]pyrazin-2-yl}methyl)amino]-6-[5-fluoro-4-hydroxy-2-(2,2,2-trifluoroethyl)phenyl]-1H-pyrazolo[4,3-c]pyridine-3-carboxamide]
JAK3
  IC50: 179 nM
JAK1
  IC50: 32.9 nM

## CNC(=O)c1n[nH]c2cc(-c3cc(F)c(O)cc3CC(F)(F)F)nc(NCc3cc(O)ccc3N(C)S(C)(=O)=O)c12 [Example 50]
TYK2
  IC50: 10.5 nM
JAK3
  IC50: 47.4 nM
JAK2
  IC50: 10.7 nM
[1]
  IC50: 321 nM

## CCCCN(c1ccccc1CNc1nc(-c2cc(F)c(O)cc2CC)cc2[nH]ncc12)S(C)(=O)=O [Example 139, N-butyl-N-[2-({[6-(2-ethyl-5-fluoro-4-hydroxyphenyl)-1H-pyrazolo[4,3-c]pyridin-4-yl]amino}-methyl)phenyl]methanesulfonamide]
JAK1
  IC50: 8.5 nM

## CNC(=O)c1n[nH]c2cc(-c3cc(F)c(O)cc3CC(F)(F)F)nc(NCc3c(F)cccc3N(C)S(C)(=O)=O)c12 [Example 18, 6-[5-fluoro-4-hydroxy-2-(2,2,2-trifluoroethyl)phenyl]-4-({2-fluoro-6-[methyl(methylsulfonyl)amino]benzyl}amino)-N-methyl-1H-pyrazolo[4,3-c]pyridine-3-carboxamide]
TYK2
  IC50: 31 nM
JAK3
  IC50: 73 nM
JAK1
  IC50: 4 nM
[1]; Homo sapiens
  IC50: 97 nM
